For orientation: MIC means the smallest concentration in the dilution series that meets the test's criterion for growth inhibition. Read a high MIC as a need for much substance.

SMILES strings stand for the structures.

One data set relates to Pseudomonas aeruginosa. The experiment in a line: Antibacterial activity against Pseudomonas aeruginosa CIP A22 after 24 hrs. In kind it is functional. Conditions: CIP A22, 24 h.
Data set [1] in a line: Critical micelle concentration in aqueous potassium hydroxide assessed as breakpoint of conductivity by conductimeter. In kind it is physicochemical. The conditions noted are these: buffer.

In turn, `C[N+](C)(CCC[N+](C)(C)CC(=O)NCCC(F)(F)C(F)(F)C(F)(F)C(F)(F)C(F)(F)C(F)(F)F)CC(=O)NCCC(F)(F)C(F)(F)C(F)(F)C(F)(F)C(F)(F)C(F)(F)F.[Br-].[Br-]` gave an MIC with Pseudomonas aeruginosa of 5.19 µM. Moreover, the CMC in data set [1] was 0.546 mM.

As for `O=C(C[N+]12CC[N+](CC(=O)NCCC(F)(F)C(F)(F)C(F)(F)C(F)(F)C(F)(F)C(F)(F)F)(CC1)CC2)NCCC(F)(F)C(F)(F)C(F)(F)C(F)(F)C(F)(F)C(F)(F)F.[Br-].[Br-]`, in the data set with Pseudomonas aeruginosa, the MIC was determined as 5.82 µM. Moreover, the CMC in data set [1] was 0.466 mM.

Regarding `C[N+](C)(CCCCCC[N+](C)(C)CC(=O)NCCC(F)(F)C(F)(F)C(F)(F)C(F)(F)C(F)(F)C(F)(F)F)CC(=O)NCCC(F)(F)C(F)(F)C(F)(F)C(F)(F)C(F)(F)C(F)(F)F.[Br-].[Br-]`, in the data set with Pseudomonas aeruginosa, the MIC worked out at 5.52 µM. Also, the CMC in data set [1] was 0.588 mM.

In turn, `CCCCCCCCCCCC[N+](C)(C)CCOc1ccccc1` [DOMIPHEN BROMIDE] showed an MIC with Pseudomonas aeruginosa of 40.8 µM.

Regarding `C[N+](C)(CCSSCC[N+](C)(C)CC(=O)NCCC(F)(F)C(F)(F)C(F)(F)C(F)(F)C(F)(F)C(F)(F)F)CC(=O)NCCC(F)(F)C(F)(F)C(F)(F)C(F)(F)C(F)(F)C(F)(F)F.[Br-].[Br-]`, the MIC against Pseudomonas aeruginosa turned out to be 4.95 µM. Besides, in data set [1], the CMC was found to be 0.451 mM.

For `C[N+](C)(CC[N+](C)(C)CC(=O)NCCC(F)(F)C(F)(F)C(F)(F)C(F)(F)C(F)(F)C(F)(F)F)CC(=O)NCCC(F)(F)C(F)(F)C(F)(F)C(F)(F)C(F)(F)C(F)(F)F.[Br-].[Br-]`, in the data set on Pseudomonas aeruginosa, it took 5.8 µM to inhibit growth (MIC). Besides, the CMC in data set [1] is 0.591 mM.

With `C[N+](C)(CCCC[N+](C)(C)CSCCC(F)(F)C(F)(F)C(F)(F)C(F)(F)C(F)(F)C(F)(F)F)CSCCC(F)(F)C(F)(F)C(F)(F)C(F)(F)C(F)(F)C(F)(F)F.[Br-].[Br-]`, the MIC in the data set on Pseudomonas aeruginosa was determined as 4.59 µM. The solubility entry in data set [1] is reported as “Insoluble”.

As for `C[N+](C)(CCCC[N+](C)(C)CCC(F)(F)C(F)(F)C(F)(F)C(F)(F)C(F)(F)C(F)(F)F)CCC(F)(F)C(F)(F)C(F)(F)C(F)(F)C(F)(F)C(F)(F)F.[Br-].[Br-]`, the minimum inhibitory concentration (MIC) in the data set with Pseudomonas aeruginosa was determined as 7.31 µM. In addition, in data set [1], the CMC amounted to 2.39 mM.

`C[N+](C)(CCCC[N+](C)(C)CCNC(=O)NCCC(F)(F)C(F)(F)C(F)(F)C(F)(F)C(F)(F)C(F)(F)F)CCNC(=O)NCCC(F)(F)C(F)(F)C(F)(F)C(F)(F)C(F)(F)C(F)(F)F.[Br-].[Br-]`: 5.38 µM was the least that counted as inhibitory with Pseudomonas aeruginosa (MIC). Moreover, the CMC in data set [1] was 0.523 mM.

In the case of `C[N+](C)(CC(=O)NCCC(F)(F)C(F)(F)C(F)(F)C(F)(F)C(F)(F)C(F)(F)F)CC(O)C[N+](C)(C)CC(=O)NCCC(F)(F)C(F)(F)C(F)(F)C(F)(F)C(F)(F)C(F)(F)F.[Br-].[Br-]`, 9.25 µM was the least that counted as inhibitory against Pseudomonas aeruginosa (MIC). In addition, the CMC in data set [1] was determined as 0.541 mM.

As for `C[N+](C)(CCCCCCCC[N+](C)(C)CC(=O)NCCC(F)(F)C(F)(F)C(F)(F)C(F)(F)C(F)(F)C(F)(F)F)CC(=O)NCCC(F)(F)C(F)(F)C(F)(F)C(F)(F)C(F)(F)C(F)(F)F.[Br-].[Br-]`, the MIC against Pseudomonas aeruginosa was found to be 2.89 µM. Moreover, in data set [1], the CMC came out at 0.361 mM.

`CCCCCCCCNC(=O)C[N+](C)(C)CCCC[N+](C)(C)CC(=O)NCCCCCCCC` displayed an MIC against Pseudomonas aeruginosa of 51.2 µM.

In the data set on Pseudomonas aeruginosa, `C[N+](C)(CCCC[N+](C)(C)CCOC(=O)NCCC(F)(F)C(F)(F)C(F)(F)C(F)(F)C(F)(F)C(F)(F)F)CCOC(=O)NCCC(F)(F)C(F)(F)C(F)(F)C(F)(F)C(F)(F)C(F)(F)F.[Br-].[Br-]` returned an MIC of 3.69 µM. Moreover, the CMC in data set [1] came to 0.54 mM.

Take `C[N+](C)(CCCC[N+](C)(C)CC(=O)NCCC(F)(F)C(F)(F)C(F)(F)C(F)(F)C(F)(F)C(F)(F)F)CC(=O)NCCC(F)(F)C(F)(F)C(F)(F)C(F)(F)C(F)(F)C(F)(F)F.[Br-].[Br-]`: the minimal inhibitory concentration (MIC) against Pseudomonas aeruginosa is 5.94 µM. For the same compound, the CMC in data set [1] amounted to 0.758 mM.

Consider `C[N+](C)(CCCCCCCCCCCC[N+](C)(C)CC(=O)NCCC(F)(F)C(F)(F)C(F)(F)C(F)(F)C(F)(F)C(F)(F)F)CC(=O)NCCC(F)(F)C(F)(F)C(F)(F)C(F)(F)C(F)(F)C(F)(F)F.[Br-].[Br-]`, for which the MIC in the data set with Pseudomonas aeruginosa worked out at 2.76 µM. Further, the CMC in data set [1] amounted to 0.269 mM.

In the data set with Pseudomonas aeruginosa, `C[N+](C)(CCCC[N+](C)(C)CCNC(=O)CCC(F)(F)C(F)(F)C(F)(F)C(F)(F)C(F)(F)C(F)(F)F)CCNC(=O)CCC(F)(F)C(F)(F)C(F)(F)C(F)(F)C(F)(F)C(F)(F)F.[Br-].[Br-]` came in with a minimal inhibitory concentration (MIC) of 1.88 µM. Besides, in data set [1], the CMC is 0.547 mM.

`C[N+](C)(C/C=C/C[N+](C)(C)CC(=O)NCCC(F)(F)C(F)(F)C(F)(F)C(F)(F)C(F)(F)C(F)(F)F)CC(=O)NCCC(F)(F)C(F)(F)C(F)(F)C(F)(F)C(F)(F)C(F)(F)F.[Br-].[Br-]`: the MIC in the data set with Pseudomonas aeruginosa came out at 3.67 µM. Also, the CMC in data set [1] came out at 0.559 mM.

Take `C[N+](C)(CCCCCCCCCC[N+](C)(C)CC(=O)NCCC(F)(F)C(F)(F)C(F)(F)C(F)(F)C(F)(F)C(F)(F)F)CC(=O)NCCC(F)(F)C(F)(F)C(F)(F)C(F)(F)C(F)(F)C(F)(F)F.[Br-].[Br-]`: in the data set on Pseudomonas aeruginosa, the MIC amounted to 2.83 µM. In addition, the CMC in data set [1] came out at 0.296 mM.
